Results as given in ChEMBL document CHEMBL3045351, “A 4-(o-methoxyphenyl)-2-aminothiazole: an anti-quorum sensing compound” (2013).
In brackets after ≈: the same amount, converted by molar mass. Activity calls are given as the source filed them. No cut-off for these calls is given here.

Assays:
Bacillus subtilis [1] = test: Induction of ROS production in Bacillus subtilis NCIM 2063 at MIC50 concentration after 3 hr by DCFH-DA-based fluorimetric analysis; format: functional, organism-based
Bacillus subtilis [2] = test: Induction of ROS production in Bacillus subtilis NCIM 2063 assessed as morphological changes at MIC50 concentration after 3 hr by scanning electron microscopic analysis; format: functional, organism-based
Pseudomonas aeruginosa [3] = test: Bactericidal activity against Pseudomonas aeruginosa PAO1 after 18 hr by crystal violet staining method; format: functional, organism-based
Bacillus subtilis [4] = test: Antibacterial activity against Bacillus subtilis NCIM 2063 incubated for 12 hr followed by subculturing measured after 24 hr by colony counting method; format: functional
Pseudomonas aeruginosa [5] = test: Antiquorum-sensing activity against Pseudomonas aeruginosa PAO1 cells assessed as scattered cells at 25 ug/ml after 18 hr by scanning electron microscopic analysis; format: functional, organism-based
Bacillus subtilis [6] = test: Antibacterial activity against Bacillus subtilis NCIM 2063 after 12 hr by resazurin reduction assay; format: functional; conditions: NCIM 2063, 12 h
Escherichia coli [7] = test: Antibacterial activity against Escherichia coli NCIM 2931 after 12 hr by resazurin reduction assay; format: functional; conditions: NCIM 2931, 12 h
Pseudomonas aeruginosa [8] = test: Antiquorum-sensing activity against Pseudomonas aeruginosa PAO1 cells assessed as decrease in biofilm formation at 25 to 100 ug/ml after 18 hr by crystal violet staining method; format: functional, organism-based
Escherichia coli [9] = test: Antibacterial activity against Escherichia coli NCIM 2931 incubated for 12 hr followed by subculturing measured after 24 hr by colony counting method; format: functional

Question: Which results are given for `COc1ccccc1-c1csc(N)n1`?
Answer: Activity (Bacillus subtilis [1]): inactive; Activity (Bacillus subtilis [2]): inactive; Activity (Pseudomonas aeruginosa [3]): Active; MBC (Bacillus subtilis [4]): 250 µg/mL (≈ 1210 µM); Activity (Pseudomonas aeruginosa [5]): Active; MIC (Bacillus subtilis [6]): 250 µg/mL (≈ 1210 µM); MIC (Escherichia coli [7]): 500 µg/mL (≈ 2420 µM); Activity (Pseudomonas aeruginosa [8]): Active; MBC (Escherichia coli [9]): 500 µg/mL (≈ 2420 µM)
